Assay results from BindingDB's records for doi:10.1124/jpet.301.1.37 (National Institutes of Health, 2002).
Several values for one entry are separate records, joined by “and”; a condition that tells them apart may be missing. Equal values may be shown once.

Key:
VIP peptides [1] = molecular target: T1, VIP peptides (Homo sapiens, UniProt P01282)
T1 sequence (P01282 whole entry): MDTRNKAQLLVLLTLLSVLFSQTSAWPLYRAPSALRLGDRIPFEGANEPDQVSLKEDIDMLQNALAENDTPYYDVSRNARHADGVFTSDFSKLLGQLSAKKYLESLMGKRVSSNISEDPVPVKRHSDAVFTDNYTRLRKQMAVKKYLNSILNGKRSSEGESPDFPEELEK

VIP peptides [2] = molecular target: T2, VIP peptides (Cavia porcellus, UniProt P04566)
T2 sequence (P04566 whole entry): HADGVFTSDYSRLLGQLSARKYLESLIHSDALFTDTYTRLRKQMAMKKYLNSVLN

Compound	Ki (VIP peptides [1])	Ki (VIP peptides [2])
CC[C@H](C)[C@H](NC(=O)[C@H](CO)NC(=O)[C@H](CC(N)=O)NC(=O)[C@H](CC(C)C)NC(=O)[C@H](Cc1ccc(O)cc1)NC(=O)[C@H](CCCCN)NC(=O)[C@H](CCCCN)NC(=O)[C@@H](NC(=O)[C@H](C)NC(=O)[C@H](CCSC)NC(=O)[C@H](CCC(N)=O)NC(=O)[C@H](CCCCN)NC(=O)[C@H](CCCN=C(N)N)NC(=O)[C@H](CC(C)C)NC(=O)[C@H](CCCN=C(N)N)NC(=O)[C@@H](NC(=O)[C@H](Cc1ccc(O)cc1)NC(=O)[C@H](CC(N)=O)NC(=O)[C@H](CC(=O)O)NC(=O)[C@@H](NC(=O)[C@H](Cc1ccccc1)NC(=O)[C@@H](NC(=O)[C@H](C)NC(=O)[C@H](CC(=O)O)NC(=O)[C@H](CO)NC(=O)[C@@H](N)Cc1cnc[nH]1)C(C)C)[C@@H](C)O)[C@@H](C)O)C(C)C)C(=O)N[C@@H](CC(C)C)C(=O)N[C@@H](CC(N)=O)C(=O)O [CAS_37221-79-7]	1.7 nM and 1.6 nM	2.5 nM
CC[C@H](C)[C@H](NC(=O)[C@H](CO)NC(=O)[C@H](CC(N)=O)NC(=O)[C@H](CC(C)C)NC(=O)[C@H](Cc1ccc(O)cc1)NC(=O)[C@H](CCCCN)NC(=O)[C@H](CCCCN)NC(=O)[C@@H](NC(=O)[C@H](C)NC(=O)[C@@H](CCSC)NC(=O)[C@H](CCC(N)=O)NC(=O)[C@H](CCCCN)NC(=O)[C@H](CCCN=C(N)N)NC(=O)[C@H](CC(C)C)NC(=O)[C@H](CCCN=C(N)N)NC(=O)C(NC(=O)[C@H](Cc1ccc(O)cc1)NC(=O)[C@H](CC(N)=O)NC(=O)[C@H](CC(=O)O)NC(=O)[C@@H](NC(=O)[C@H](Cc1ccccc1)NC(=O)[C@@H](NC(=O)[C@H](C)NC(=O)[C@H](CC(=O)O)NC(=O)[C@H](CO)NC(=O)[C@@H](N)Cc1cnc[nH]1)C(C)C)[C@@H](C)O)[C@@H](C)O)C(C)C)C(=O)N[C@@H](CC(C)C)C(=O)N[C@@H](CC(N)=O)C(N)=O (stereo partly drawn) [VIP [D- Met 17]]	–	33.1 nM
CC[C@H](C)[C@H](NC(=O)[C@H](CO)NC(=O)[C@H](CC(N)=O)NC(=O)[C@H](CC(C)C)NC(=O)[C@H](Cc1ccc(O)cc1)NC(=O)[C@H](CCCCN)NC(=O)[C@H](CCCCN)NC(=O)[C@@H](NC(=O)[C@@H](C)NC(=O)[C@H](CCSC)NC(=O)[C@H](CCC(N)=O)NC(=O)[C@H](CCCCN)NC(=O)[C@H](CCCN=C(N)N)NC(=O)[C@H](CC(C)C)NC(=O)[C@H](CCCN=C(N)N)NC(=O)[C@@H](NC(=O)[C@H](Cc1ccc(O)cc1)NC(=O)[C@H](CC(N)=O)NC(=O)[C@H](CC(=O)O)NC(=O)[C@@H](NC(=O)[C@H](Cc1ccccc1)NC(=O)[C@@H](NC(=O)[C@H](C)NC(=O)[C@H](CC(=O)O)NC(=O)[C@H](CO)NC(=O)[C@@H](N)Cc1cnc[nH]1)C(C)C)[C@@H](C)O)[C@@H](C)O)C(C)C)C(=O)N[C@@H](CC(C)C)C(=O)N[C@@H](CC(N)=O)C(N)=O [VIP [D-Ala18]]	3.5 nM and 15.4 nM and 12.1 nM	17.8 nM
CC[C@H](C)[C@H](NC(=O)[C@H](CO)NC(=O)[C@H](CC(N)=O)NC(=O)[C@H](CC(C)C)NC(=O)[C@H](Cc1ccc(O)cc1)NC(=O)[C@H](CCCCN)NC(=O)[C@H](CCCCN)NC(=O)[C@@H](NC(=O)[C@H](C)NC(=O)[C@H](CCSC)NC(=O)[C@H](CCC(N)=O)NC(=O)[C@H](CCCCN)NC(=O)[C@H](CCCN=C(N)N)NC(=O)[C@H](CC(C)C)NC(=O)[C@H](CCCN=C(N)N)NC(=O)[C@@H](NC(=O)[C@H](Cc1ccc(O)cc1)NC(=O)[C@@H](CC(N)=O)NC(=O)[C@H](CC(=O)O)NC(=O)[C@@H](NC(=O)[C@H](Cc1ccccc1)NC(=O)[C@@H](NC(=O)[C@H](C)NC(=O)[C@H](CC(=O)O)NC(=O)[C@H](CO)NC(=O)[C@@H](N)Cc1cnc[nH]1)C(C)C)[C@@H](C)O)[C@@H](C)O)C(C)C)C(=O)N[C@@H](CC(C)C)C(=O)N[C@@H](CC(N)=O)C(N)=O [VIP [D-Asn9]]	–	2.8 nM
CC[C@H](C)[C@H](NC(=O)[C@H](CO)NC(=O)[C@@H](CC(N)=O)NC(=O)[C@H](CC(C)C)NC(=O)[C@H](Cc1ccc(O)cc1)NC(=O)[C@H](CCCCN)NC(=O)[C@H](CCCCN)NC(=O)[C@@H](NC(=O)[C@H](C)NC(=O)[C@H](CCSC)NC(=O)[C@H](CCC(N)=O)NC(=O)[C@H](CCCCN)NC(=O)[C@H](CCCN=C(N)N)NC(=O)[C@H](CC(C)C)NC(=O)[C@H](CCCN=C(N)N)NC(=O)[C@@H](NC(=O)[C@H](Cc1ccc(O)cc1)NC(=O)[C@H](CC(N)=O)NC(=O)[C@H](CC(=O)O)NC(=O)[C@@H](NC(=O)[C@H](Cc1ccccc1)NC(=O)[C@@H](NC(=O)[C@H](C)NC(=O)[C@H](CC(=O)O)NC(=O)[C@H](CO)NC(=O)[C@@H](N)Cc1cnc[nH]1)C(C)C)[C@@H](C)O)[C@@H](C)O)C(C)C)C(=O)N[C@@H](CC(C)C)C(=O)N[C@@H](CC(N)=O)C(N)=O [VIP [D-Asn24]]	2.6 nM and 11.8 nM and 12.6 nM	60.3 nM
CC[C@H](C)[C@H](NC(=O)[C@H](CO)NC(=O)[C@H](CC(N)=O)NC(=O)[C@H](CC(C)C)NC(=O)[C@H](Cc1ccc(O)cc1)NC(=O)[C@H](CCCCN)NC(=O)[C@H](CCCCN)NC(=O)[C@@H](NC(=O)[C@H](C)NC(=O)[C@H](CCSC)NC(=O)[C@H](CCC(N)=O)NC(=O)[C@H](CCCCN)NC(=O)[C@H](CCCN=C(N)N)NC(=O)[C@H](CC(C)C)NC(=O)[C@H](CCCN=C(N)N)NC(=O)[C@@H](NC(=O)[C@H](Cc1ccc(O)cc1)NC(=O)[C@H](CC(N)=O)NC(=O)[C@@H](CC(=O)O)NC(=O)[C@@H](NC(=O)[C@H](Cc1ccccc1)NC(=O)[C@@H](NC(=O)[C@H](C)NC(=O)[C@H](CC(=O)O)NC(=O)[C@H](CO)NC(=O)[C@@H](N)Cc1cnc[nH]1)C(C)C)[C@@H](C)O)[C@@H](C)O)C(C)C)C(=O)N[C@@H](CC(C)C)C(=O)N[C@@H](CC(N)=O)C(N)=O [VIP [D-Asp8]]	110 nM and 138 nM and 178 nM	275 nM
CC[C@H](C)[C@H](NC(=O)[C@H](CO)NC(=O)[C@H](CC(N)=O)NC(=O)[C@H](CC(C)C)NC(=O)[C@H](Cc1ccc(O)cc1)NC(=O)[C@H](CCCCN)NC(=O)[C@H](CCCCN)NC(=O)[C@@H](NC(=O)[C@H](C)NC(=O)[C@H](CCSC)NC(=O)[C@H](CCC(N)=O)NC(=O)[C@H](CCCCN)NC(=O)[C@H](CCCN=C(N)N)NC(=O)[C@H](CC(C)C)NC(=O)[C@H](CCCN=C(N)N)NC(=O)[C@@H](NC(=O)[C@H](Cc1ccc(O)cc1)NC(=O)[C@H](CC(N)=O)NC(=O)[C@H](CC(=O)O)NC(=O)[C@@H](NC(=O)[C@H](Cc1ccccc1)NC(=O)[C@@H](NC(=O)[C@H](C)NC(=O)[C@H](CC(=O)O)NC(=O)[C@H](CO)NC(=O)[C@H](N)Cc1cnc[nH]1)C(C)C)[C@@H](C)O)[C@@H](C)O)C(C)C)C(=O)N[C@@H](CC(C)C)C(=O)N[C@@H](CC(N)=O)C(N)=O [VIP [D-His1]]	0.74 nM and 4.1 nM and 3.7 nM	22.4 nM
CC[C@H](C)[C@H](NC(=O)[C@H](CO)NC(=O)[C@H](CC(N)=O)NC(=O)[C@H](CC(C)C)NC(=O)[C@H](Cc1ccc(O)cc1)NC(=O)[C@H](CCCCN)NC(=O)[C@H](CCCCN)NC(=O)[C@@H](NC(=O)[C@H](C)NC(=O)[C@H](CCSC)NC(=O)[C@H](CCC(N)=O)NC(=O)[C@H](CCCCN)NC(=O)[C@H](CCCN=C(N)N)NC(=O)[C@H](CC(C)C)NC(=O)[C@H](CCCN=C(N)N)NC(=O)[C@@H](NC(=O)[C@H](Cc1ccc(O)cc1)NC(=O)[C@H](CC(N)=O)NC(=O)[C@H](CC(=O)O)NC(=O)[C@@H](NC(=O)[C@H](Cc1ccccc1)NC(=O)[C@@H](NC(=O)[C@H](C)NC(=O)[C@H](CC(=O)O)NC(=O)[C@H](CO)NC(=O)[C@@H](N)Cc1cnc[nH]1)C(C)C)[C@@H](C)O)[C@@H](C)O)C(C)C)C(=O)N[C@H](CC(C)C)C(=O)N[C@@H](CC(N)=O)C(N)=O [VIP [D-Leu27]]	–	5 nM
CC[C@H](C)[C@H](NC(=O)[C@H](CO)NC(=O)[C@H](CC(N)=O)NC(=O)[C@H](CC(C)C)NC(=O)[C@H](Cc1ccc(O)cc1)NC(=O)[C@H](CCCCN)NC(=O)[C@H](CCCCN)NC(=O)[C@@H](NC(=O)[C@H](C)NC(=O)[C@@H](CCSC)NC(=O)[C@H](CCC(N)=O)NC(=O)[C@H](CCCCN)NC(=O)[C@H](CCCN=C(N)N)NC(=O)[C@H](CC(C)C)NC(=O)[C@H](CCCN=C(N)N)NC(=O)C(NC(=O)[C@H](Cc1ccc(O)cc1)NC(=O)[C@H](CC(N)=O)NC(=O)[C@H](CC(=O)O)NC(=O)C(NC(=O)[C@H](Cc1ccccc1)NC(=O)[C@@H](NC(=O)[C@H](C)NC(=O)[C@H](CC(=O)O)NC(=O)[C@H](CO)NC(=O)[C@@H](N)Cc1cnc[nH]1)C(C)C)[C@@H](C)O)[C@@H](C)O)C(C)C)C(=O)N[C@@H](CC(C)C)C(=O)N[C@@H](CC(N)=O)C(N)=O (stereo partly drawn) [VIP [D-Met17]]	6.7 nM and 29.5 nM and 36.3 nM	–
CC[C@H](C)[C@H](NC(=O)[C@@H](CO)NC(=O)[C@H](CC(N)=O)NC(=O)[C@H](CC(C)C)NC(=O)[C@H](Cc1ccc(O)cc1)NC(=O)[C@H](CCCCN)NC(=O)[C@H](CCCCN)NC(=O)[C@@H](NC(=O)[C@H](C)NC(=O)[C@H](CCSC)NC(=O)[C@H](CCC(N)=O)NC(=O)[C@H](CCCCN)NC(=O)[C@H](CCCN=C(N)N)NC(=O)[C@H](CC(C)C)NC(=O)[C@H](CCCN=C(N)N)NC(=O)[C@@H](NC(=O)[C@H](Cc1ccc(O)cc1)NC(=O)[C@H](CC(N)=O)NC(=O)[C@H](CC(=O)O)NC(=O)[C@@H](NC(=O)[C@H](Cc1ccccc1)NC(=O)[C@@H](NC(=O)[C@H](C)NC(=O)[C@H](CC(=O)O)NC(=O)[C@H](CO)NC(=O)[C@@H](N)Cc1cnc[nH]1)C(C)C)[C@@H](C)O)[C@@H](C)O)C(C)C)C(=O)N[C@@H](CC(C)C)C(=O)N[C@@H](CC(N)=O)C(N)=O [VIP [D-Ser25]]	–	43.6 nM
H-HSDAAFTDNYTRLRKQMAVKKYLNSILN-NH2 [VIP Ala5]	–	34.7 nM
H-HSDAVFTDNYTRLRKQMAVKKYLASILN-NH2 [VIP Ala24]	–	8.9 nM
H-HSDAVFTDNYTRLRKQMAVKKYLNSALN-NH2 [VIP Ala26]	–	4.3 nM and 12.3 nM
